Several values for one entry are separate records, joined by “and”; a condition that tells them apart may be missing. Equal values may be shown once. Peptide text beside a SMILES is read from it. * marks the point of attachment. Cbz = O=C(OCc1ccccc1)*
Legend:
[1] = test system: surface GluA1 (AMPAR) in hippocampal neurons; test: Aβ-induced AMPAR endocytosis: surface GluA1 in cultured hippocampal neurons; format: cell-based, rat; details: for GluA1 surface expression (GluA1 puncta normalized to SV2 puncta and to naïve cultures): 2 hrs, naïve 100%±4%, n=3
Method: A. Micrograph showing GluA2 surface expression upon Aβ treatment in the presence or absence of Nutlin-3. Rat hippocampal neurons were cultured, and treated with Aβ or Aβ together with either Nutlin-3 (5 μM) or HLI373 (15 μM) for 2 hours. The final concentration of Aβ was 0.3 ng/mL. Naïve and Nutlin-3 and HLI373 treatments, without Aβ treatment, were used as controls. Surface expression of AMPARs was measured by labeling the cultured neurons in vivo with an antibody to the AMPAR subunit GluA1, followed by confocal microscopy and immunofluorescence quantification by MetaMorph. The number of GluA1 puncta was normalized to SV2 puncta (a presynaptic marker) and to the value in control naïve cultures. […] Scale bar=5 μm. B. Bar graph showing quantification of the percentage of surface GluA1 in response to the various treatment described in A. Results are presented as mean±SEM.
Soluble amyloid beta (Aβ) peptides contribute directly to synapse loss and decreased dendritic spine density and glutamate receptors at the synapse. Moreover, Aβ has been reported to induce AMPAR internalization in cultured neurons. To evaluate the effect of Mdm2 inhibitors on this process, cultured rat hippocampal neurons were treated for 2 hrs with Aβ (or Aβ together with either Nutlin-3 (5 μM) or HLI-373 (15 μM). Aβ can be prepared from 7PA2 Chinese hamster ovary (CHO) cells stably expressing human amyloid precursor protein (APP)751 containing the V717 mutation (Walsh et al., 2005; Shankar et al., 2007; Shankar et al., 2011), and is also available commercially from, e.g., rPeptide (Bogart, G A). The concentration of Aβ in the hippocampal cultures was 0.3 ng/mL. Naïve and Nutlin-3 and HLI-373 treatments were used as controls. Surface expression of AMPARs was measured by labeling the cultured neurons in vivo with an antibody to the AMPAR subunit GluA1, followed by confocal microscopy and immunofluorescence quantification by MetaMorph. The number of GluA1 puncta was normalized to SV2 puncta (a presynaptic marker) and to the value in control naïve cultures (see FIGS. 8A and B).
Minimum inhibitor concentrations of Nutlin-3a or HLI-373, as well as any other Mdm2 inhibitor identified using the screens described supra, can be readily determined by using different ranges of inhibitor concentrations and assessing the effects of the particular concentrations on surface expression of AMPARs. Similar results are expected with other inhibitors of PSD-95 ubiquitination by Mdm2, such as PSD-95 inhibitors.

PSD-95 degradation = details: Colledge et al., 2003; cited from earlier work
3×Tg-AD mice = details: Martinez-Coria-LaFeria, 2010; cited from earlier work
[2] = test system: surface GluA2 (AMPAR) in hippocampal neurons; test: NMDA-induced AMPAR endocytosis: surface GluA2 by antibody feeding in hippocampal cultures; format: cell-based, rat; details: NMDA 100 μM for 3 min
Method: A. Micrograph showing GluA2 surface expression upon NMDA treatment in the presence or absence of Nutlin-3. Cultured hippocampal neurons were subjected to an antibody feeding protocol using an antibody that recognizes an extracellular domain of GluA2. The neurons were subsequently pretreated with Nutlin-3 (5 μM for 30 min) prior to NMDA treatment (100 μM for 3 min), followed by agonist washout. Neurons were incubated for an additional 15 min (with or without Nutlin-3) before immunocytochemical analysis of PSD-95 and surface GluA2 by confocal microscopy.
B. A bar graph depicting the proportion of GluA2 found at the surface of cultured hippocampal neurons upon treatment with or without NMDA, in the presence or absence of Nutlin-3. Results are presented as mean±SEM.
Brief stimulation of NMDARs induces AMPAR endocytosis in cultured neurons (Colledge et al., 2003; Bhattacharyya et al., 2009). To determine whether Nutlin-3a antagonizes NMDA-induced AMPAR endocytosis, measured as loss of surface AMPAR staining, the surface expression of GluA2 (a subunit of AMPARs in rat hippocampal cultures) was assessed. Surface GluA2 were labeled in vivo by an antibody feeding protocol using an antibody that recognizes an extracellular domain of GluA2 (Ehlers, 2000; Lin et al., 2000; Bhattacharyya et al., 2009). Neurons were pretreated with Nutlin-3a (5 μM for 30 min) prior to NMDA treatment. After brief stimulation with NMDA (100 μM for 3 min) and agonist washout, neurons were incubated for an additional 15 min (with or without Nutlin-3a) before immunocytochemical analysis of PSD-95 and surface GluA2 by confocal microscopy under the same settings. Immunostained puncta were quantified using MetaMorph software (3 neurons from 2 coverslips with approximately 450 puncta analyzed/condition) and the number of GluA2 puncta was normalized to the number of PSD-95 puncta.
Naïve and NMDA-stimulated conditions were used as controls. […]

[3] = test system: interaction of β-adaptin with PSD-95; test: NMDA-dependent interaction of PSD-95 with β-adaptin in acute forebrain slices (co-immunoprecipitation); format: cell-based, mouse; details: NMDA 100 μM, 3 min; for interaction of β-adaptin with PSD-95 (percentage of p53 knockout unstimulated control): n=3
Method: A. Immunoblot showing that NMDA receptors regulate the interaction of PSD-95 with β-adaptin. Acute forebrain slices from wild-type mice were stimulated with NMDA (100 μM, 3 min) and, after NMDA washout, incubated for additional 5 or 10 min.
B. Immunoblot showing that genetic deletion of Mdm2 reduces the NMDA-dependent interaction of PSD-95 with β-adaptin. Acute forebrain slices from p53 knockout (control) and Mdm2/p53 double knockout mice were stimulated with NMDA (100 μM, 3 min) and, after NMDA washout, incubated for an additional 5 or 10 min.
Acute forebrain slices were prepared as previously described (Patel et al., 2003; Zhang et al., 2008). Briefly, brains of adult wild-type, p53 knockout or Mdm2/p53 double knockout mice were isolated, and 300 μm coronal slices of forebrain (within the region corresponding approximately to Bregma −1.0 to −3.5 mm, containing the hippocampus) were prepared using a Vibratome (Leica Microsystems VT1000S) in ice-cold oxygenated artificial cerebrospinal fluid (ACSF: 117 mM NaCl, 1.7 mM KCl, 1.2 mM MgCl2, 2.5 mM CaCl2, 1.2 mM NaH2PO4, 25 mM NaHCO3, 11.5 mM glucose). Slices were preincubated in ACSF for 1 h before treatments and all experiments were conducted at 32° C. in 95% O2 and 5% CO2 incubator. NMDA treatment was conducted by incubating slices with 100 μM NMDA for 3 min in ACSFcLTD (124 mM NaCl, 5 mM KCl, 1.5 mM MgCl2, 2.5 mM CaCl2, 1.25 mM NaH2PO4, 26 mM NaHCO3, 10 mM glucose) (Lee et al., 1998). After agonist washout, the slices were further incubated in ACSF-cLTD for the time indicated (5-10 min). Slice lysates were prepared as previously described (Zhang et al., 2008) and PSD-95 immunoprecipitated from the lysates was analyzed by Western blot and quantified as described above. Values were expressed as mean±S.E.M. and statistically compared using analysis of variance (ANOVA).
PSD-95 is important for NMDAR-induced endocytosis of synaptic AMPARs (Colledge et al., 2003; Bhattacharyya et al., 2009) and a brief application of NMDA induces both a rapid and transient increase in PSD-95 ubiquitination, which peaks approximately 10 min after the onset of NMDA treatment (Colledge et al., 2003). […] Following a brief (3 min) stimulation with 100 μM NMDA, a treatment that induces AMPAR endocytosis (Bhattacharyya et al., 2009), acute forebrain slices from adult wildtype mice were analyzed at 5 min and 10 min after agonist washout. PSD-95 immunoprecipitated from slice lysates was analyzed for coimmunoprecipitation of β-adaptin and ubiquitination (FIG. 5A).
To further investigate whether ubiquitination of PSD-95 promotes the interaction of PSD-95 with β-adaptin, this interaction was investigated in acute brain slices derived from mice with a genetic deletion of the ubiquitin ligase Mdm2. Acute forebrain slices from adult Mdm2/p53 double knockout mice and control p53 knockout mice were analyzed at 5 min and 10 min after NMDA (100 μM, 3 min) washout. The interaction of PSD-95 with β-adaptin was assessed by immunoblot of PSD-95 immunoprecipitated from slice lysates (FIG. 5B).

PSD-95 ubiquitination = PSD-95 ubiquitination in acute forebrain slices (PSD-95 immunoprecipitation, ubiquitin/FK1/FK2 immunoblot); format: cell-based, mouse; details: wild-type slices; NMDA 100 μM, 3 min; 10 min after washout

Question: Which results are given for `CN(C)CCCNc1c2c(=O)n(C)c(=O)nc-2n(C)c2ccccc12` [HLI-373]?
Answer: effect on loss of surface GluA1 induced by Aβ ([1]; Aβ 0.3 ng/mL, 2 hours, Nutlin-3 5 μM, HLI373 15 μM): prevented the loss of surface GluA1 induced by Aβ treatment; GluA1 surface expression (GluA1 puncta normalized to SV2 puncta and to naïve cultures) ([1]; co-treatment with Aβ 0.3 ng/mL, Nutlin 5 μM, HLI373 15 μM): 132.18%±11.33%; GluA1 surface expression (GluA1 puncta normalized to SV2 puncta and to naïve cultures) ([1]; inhibitor alone, without Aβ, Nutlin-3 5 μM, HLI-373 15 μM): 170.95%±5.37%

Question: For `CC(C)C[C@@H](C=O)NC(=O)[C@H](CC(C)C)NC(=O)[C@H](CC(C)C)NC(=O)OCc1ccccc1` [MG132] (Cbz-Leu-Leu-Leu-aldehyde), which “effect on PSD-95 degradation” value (PSD-95 degradation) is on record?
Answer: The value was “protect PSD-95 from degradation”.

Question: For `CC12CC3CC(C)(C1)CC(N)(C3)C2` [Memantine, 1-amino-3,5-dimethyl-adamantane], which “AD-like neuropathology in 3×Tg-AD mice” value (3×Tg-AD mice) is on record?
Answer: The value was “reduce AD-like neuropathology”.

Question: And the “cognition in 3×Tg-AD mice” value (3×Tg-AD mice)?
Answer: Its value is “improve cognition”.

Question: For `CN[C@H](CC(=O)O)C(=O)O` [NMDA, N-Methyl-D-aspartic acid], which “PSD-95 puncta following NMDA stimulation of naïve cultures” value [2] is on record?
Answer: Its value is “did not decrease”.

Question: And the “GluA2 surface expression (GluA2 puncta normalized to PSD-95 puncta, versus naïve control)” value ([2]; then 15 min, no inhibitor, naïve 100%±9.47%, n=3)?
Answer: Its value is 41.95±9.63%.

Question: And the “interaction of β-adaptin with PSD-95 (percentage of p53 knockout unstimulated control)” value ([3]; Mdm2/p53 double knockout slices, 5 min after washout)?
Answer: Its value is 45.6%±1.8%.

Question: What about the “interaction of β-adaptin with PSD-95 (percentage of p53 knockout unstimulated control)” value ([3]; Mdm2/p53 double knockout slices, 10 min after washout) of the same molecule?
Answer: Its value is 99.8%±43.7%.

Question: What about the “interaction of β-adaptin with PSD-95 (percentage of p53 knockout unstimulated control)” value ([3]; p53 knockout slices, 5 min after washout, control 100%±14.9%) of the same molecule?
Answer: Its value is 209.0%±72.6%.

Question: And the “interaction of β-adaptin with PSD-95 (percentage of p53 knockout unstimulated control)” value ([3]; p53 knockout slices, 10 min after washout)?
Answer: Its value is 549.8%±168% and 549.8%±167.7%.

Question: And the “coimmunoprecipitation of β-adaptin with PSD-95 versus unstimulated control” value ([3]; wild-type slices, 10 min after washout)?
Answer: Its value is “coimmunoprecipitation of β-adaptin with PSD-95 10 min after NMDA washout”.

Question: What about the “PSD-95 ubiquitination (FK2 immunoblot) versus unstimulated control” value (PSD-95 ubiquitination) of the same molecule?
Answer: The value was “increased ubiquitination at 10 min after NMDA washout”.

Reference: patent publication US10016414B2, “Modulation of ubiquitination of synaptic proteins for the treatment of neurodegenerative and psychiatric disorders” (UNIVERSITY OF MASSACHUSETTS, priority 2010, dated 2018)
